Results: BigSolDB 2.1

CCOC(=O)[C@@H]1CSCN1.Cl
solubility (mole fraction)
Conditions	283.15 K	288.15 K	293.15 K	298.15 K	303.15 K	313.15 K	323.15 K
in 1,4-dioxane	–	0.000476	0.000593	–	0.000872	0.00156	0.00266
in 2-butanone	4.1e-05	–	0.000107	–	0.00018	0.000298	0.000434
in acetone	4e-05	–	0.000116	–	0.000348	0.000859	0.00187
in acetonitrile	0.000408	–	0.00125	–	0.00252	0.00451	0.00664
in dichloromethane	0.00638	0.01	0.0128	0.0157	0.0187	–	–
in ethanol	0.00937	–	0.0125	–	0.0193	0.0306	0.0473
in ethyl acetate	0.000103	–	0.000161	–	0.000215	0.000273	0.000345
in isobutanol	0.00153	–	0.00257	–	0.00495	0.00811	0.0117
in isopropanol	0.00271	–	0.00323	–	0.00492	0.00807	0.0131
in methanol	0.0465	–	0.0619	–	0.0835	0.112	0.142
in methyl acetate	3.8e-05	–	7e-05	–	0.000126	0.000192	0.000276
in n-butanol	0.00141	–	0.00427	–	0.00829	0.0124	0.017
in n-propanol	0.00489	–	0.0078	–	0.012	0.0186	0.0298
in sec-butanol	0.000766	–	0.00103	–	0.00182	0.00365	0.00936
in water	0.0825	–	0.104	–	0.124	0.148	0.188
